# Assay results from US20210301306A1 (priority 2018, published 2021).
# Test system: normally fed mice
# Assay: Feeding behavior in normally fed mice injected into the stomach wall with vector, then given CNO
# Type: in vivo
# Details: 1 mg/kg CNO, FIGS. 9A-9E
# Protocol: FIG. 3 depicts the response of normally fed […] mice injected into the stomach wall with retroAAV/rh10 expressing a DREADD (hD3q) which activates neurons in response to 1 mg/kg CNO. Animals injected with retroAAV/rh10 expressing the marker gene mCherry fed normally in response to CNO.
smiles,measurement,value
"C[N+]1([O-])CCN(C2=Nc3cc(Cl)ccc3Nc3ccccc32)CC1 [CNO, clozapine-N-oxide]",long term feeding behavior,long term stability of reduced feeding behavior
